This passage reports MIC results from DBAASP.

Among the test systems are Serratia rubidaea X01; Klebsiella sp.; Klebsiella aerogenes; Acinetobacter sp.; Proteus mirabilis; Providencia stuartii; Micrococcus luteus; Escherichia coli; Pseudomonas haemolytica; Streptococcus uberis; Staphylococcus aureus; Leuconostoc lactis; Listeria innocua; Pasteurella multocida; Bacillus cereus.
What all share (test): ≥ marks a high value that may be exact or a test limit, other limits are often not marked, values filed in µg/mL are converted to µM
The test system of assay [1] is Staphylococcus aureus ATCC 25923.
The test system of assay [2] is Candida albicans ATCC 10231.
In assay [3] the test system is Escherichia coli ATCC 25922.
Assay [4] relates to Rhodococcus rhodochrous X15.
The test system of assay [5] is Staphylococcus carnosus KHS.
For assay [6], the system named is Bacillus licheniformis X39.
Assay [7] has as its system Enterococcus faecalis 981.
The subject of assay [8] is Psychrobacter faecalis X29.
Assay [9] deals with Escherichia coli NCTC 10418.
Assay [10] has as its system Escherichia coli NCTC 8007.
Assay [11] deals with Staphylococcus aureus NCTC 10571.
Assay [12] has as its system Aspergillus niger ATCC 16404.
Assay [13] deals with Pseudomonas aeruginosa ATCC 9027.
Assay [14] concerns Streptococcus pneumoniae ATCC 49619.
In assay [15] the test system is Enterococcus faecalis PCM 2673.
For assay [16], the system named is Escherichia coli ATCC 23506.
Assay [17] deals with Candida glabrata ATCC 15126.
Assay [18] has as its system Staphylococcus aureus ATCC 9144.
Assay [19] has as its system Klebsiella pneumoniae ATCC 700603.
In assay [20] the test system is Staphylococcus epidermidis.
In assay [21] the test system is Pseudomonas aeruginosa 1.50.
In assay [22] the test system is Staphylococcus aureus ATCC 2592.

Converted amounts (≈) assume the structure as drawn.

Broadly, the MIC is the smallest concentration in the dilution series that meets the test's criterion for growth inhibition. High values mean a less susceptible organism, low ones a more susceptible organism. As to `CC[C@H](C)[C@H](NC(=O)[C@H](CCCCN)NC(=O)[C@@H]1CCCN1C(=O)[C@H](CC(C)C)NC(=O)[C@H](Cc1ccccc1)NC(=O)[C@H](CC(N)=O)NC(=O)[C@H](C)NC(=O)[C@H](C)NC(=O)[C@H](CC(C)C)NC(=O)CNC(=O)[C@H](C)NC(=O)[C@@H](NC(=O)[C@@H](NC(=O)[C@@H]1CCCN1C(=O)[C@H](CC(C)C)NC(=O)[C@@H](N)Cc1ccccc1)[C@@H](C)CC)C(C)C)C(=O)N[C@H](C(=O)N[C@H]1CSSC[C@@H](C(=O)O)NC(=O)[C@H](CCCCN)NC(=O)[C@H](CCCCN)NC(=O)[C@H]([C@@H](C)O)NC(=O)[C@H]([C@@H](C)CC)NC(=O)[C@H](CCCCN)NC1=O)C(C)C` [FLPIVAGLAANFLPKIVCKITKKC], the minimum inhibitory concentration (MIC) in [1] is 9 µM (≈ 23.3 µg/mL); in assay [2], 150 µM (≈ 388 µg/mL); in assay [3] it was 150 µM (≈ 388 µg/mL); against Serratia rubidaea X01, 19 µM (≈ 49.1 µg/mL); in [4] it was 1.2 µM (≈ 3.1 µg/mL); in assay [5], 9 µM (≈ 23.3 µg/mL). For the same compound, the figures for the MIC in assay [6], in assay [7] and in assay [8] were 9 µM (≈ 23.3 µg/mL), 19 µM (≈ 49.1 µg/mL) and 19 µM (≈ 49.1 µg/mL), respectively.
In the case of `CSCC[C@H](NC(=O)[C@H](CC(N)=O)NC(=O)[C@H](CCCN=C(N)N)NC(=O)[C@H](CCC(N)=O)NC(=O)[C@H](Cc1c[nH]c2ccccc12)NC(=O)[C@H](CCC(N)=O)NC(=O)[C@@H](N)Cc1ccccc1)C(=O)N[C@@H](CCCN=C(N)N)C(=O)N[C@@H](CCCCN)C(=O)N[C@H](C(=O)N[C@@H](CCCN=C(N)N)C(=O)O)C(C)C` [FQWQRNMRKVR], the MIC was not below 290 µM against Klebsiella sp.; not below 290 µM in the assay on Klebsiella aerogenes; not below 579 µM in assay [9]; not below 290 µM in assay [10]; 0.86 µM (≈ 1.33 µg/mL) against Acinetobacter sp.; not below 1000 µM with Proteus mirabilis. Further, the results for the MIC (in assay [11]; in the assay on Providencia stuartii) were 14 µM (≈ 21.7 µg/mL) and not below 1000 µM, respectively.
Regarding `CC[C@H](C)[C@H](NC(=O)CNC(=O)[C@H](CO)NC(=O)[C@H](C)NC(=O)[C@H](CC(C)C)NC(=O)[C@H](CC(=O)O)NC(=O)CNC(=O)[C@H](C)NC(=O)[C@H](C)NC(=O)[C@H](CO)NC(=O)[C@H](CCCCN)NC(=O)[C@@H](NC(=O)[C@H](CCCCN)NC(=O)[C@H](CCC(N)=O)NC(=O)[C@H](Cc1c[nH]c2ccccc12)NC(=O)[C@H](CC(C)C)NC(=O)CN)[C@@H](C)CC)C(=O)N[C@H](C(=O)N[C@@H](CCC(=O)O)C(=O)N[C@@H](C)C(=O)N[C@H](C(=O)N[C@@H](CCCCN)C(=O)N[C@@H](CO)C(N)=O)[C@@H](C)CC)C(C)C` [GLWQKIKSAAGDLASGIVEAIKS], the values for the minimum inhibitory concentration (MIC) with Micrococcus luteus, in the assay with Escherichia coli and against Pseudomonas haemolytica were 2.56 µM (≈ 6 µg/mL), 21.3 µM (≈ 50 µg/mL) and 0.171 µM (≈ 0.4 µg/mL), respectively.
`CC[C@H](C)[C@H](NC(=O)CNC(=O)CNC(=O)[C@@H](N)CC(C)C)C(=O)N[C@H](C(=O)N[C@@H](CO)C(=O)N[C@@H](C)C(=O)N[C@H](C(=O)N[C@@H](CCCCN)C(=O)N[C@@H](CCCCN)C(=O)N[C@H](C(=O)N[C@H](C(=O)N[C@@H](CC(=O)O)C(=O)N[C@@H](Cc1ccccc1)C(=O)N[C@@H](CC(C)C)C(=O)NCC(N)=O)C(C)C)[C@@H](C)CC)C(C)C)C(C)C` [LGGIVSAVKKIVDFLG]: the MIC in [1] was 39.6 µM (≈ 64 µg/mL); in assay [12] it was not below 158 µM; with Streptococcus uberis, 30.9 µM (≈ 50 µg/mL); in [2] it was 79.2 µM (≈ 128 µg/mL); in assay [3], 39.6 µM (≈ 64 µg/mL); in assay [13] it was more than 158 µM. Besides, the MIC in assay [14] was not below 79.2 µM; against Staphylococcus aureus, 30.9 µM (≈ 50 µg/mL); against Leuconostoc lactis it was 7.43 µM (≈ 12 µg/mL); with Listeria innocua it was not below 61.9 µM; in assay [15], not below 79.2 µM; in the assay on Micrococcus luteus, not below 61.9 µM. In addition, the MIC in assay [16] was not below 79.2 µM; in [17], not below 158 µM; against Pasteurella multocida, not below 61.9 µM; in assay [18] it was not below 39.6 µM; with Escherichia coli, more than 61.9 µM; in assay [19] it was 19.8 µM (≈ 32 µg/mL). In addition, the MIC (against Bacillus cereus; in assay [20]) was not below 61.9 µM throughout.
For the compound `CC[C@H](C)[C@H](NC(=O)CNC(=O)[C@@H](NC(=O)CNC(=O)[C@H](C)NC(=O)CNC(=O)[C@H](CCCN=C(N)N)NC(=O)[C@H](C)NC(=O)[C@@H](NC(=O)CNC(=O)[C@H](CC(C)C)NC(=O)[C@H](C)NC(=O)[C@@H](NC(=O)[C@H](CC(N)=O)NC(=O)[C@H](CCCCN)NC(=O)[C@@H](NC(=O)[C@H](CCCCN)NC(=O)[C@H](CC(=O)O)NC(=O)[C@H](CC(C)C)NC(=O)[C@@H](NC(=O)[C@@H](N)CO)[C@@H](C)CC)[C@@H](C)CC)C(C)C)C(C)C)[C@@H](C)O)C(=O)N[C@@H](CC(C)C)C(=O)N[C@@H](CCCCN)C(=O)N[C@@H](C)C(=O)N[C@@H](CC(C)C)C(=O)N[C@@H](CC(C)C)C(=O)N[C@H]1CSSC[C@@H](C(=O)O)NC(=O)[C@H](CO)NC(=O)[C@H](CCCCN)NC(=O)[C@H](CC(=O)O)NC(=O)[C@H](CC(C)C)NC(=O)[C@H](CCCCN)NC1=O` [SILDKIKNVALGVARGAGTGILKALLCKLDKSC], the MIC was 30 µM (≈ 101 µg/mL) in [21]; 30 µM (≈ 101 µg/mL) in assay [3]; not below 60 µM with Serratia rubidaea X01; 1.9 µM (≈ 6.4 µg/mL) in [4]; 3.8 µM (≈ 12.8 µg/mL) in assay [22]; 1.9 µM (≈ 6.4 µg/mL) in assay [5]. In addition, the results for the MIC in assay [6] and in assay [8] were 3.8 µM (≈ 12.8 µg/mL) and 1.9 µM (≈ 6.4 µg/mL), respectively.
